# Reference: ChEMBL document CHEMBL6127070, “Design, synthesis, and molecular dynamic simulations of some novel benzo[d]thiazoles with anti-virulence activity against Pseudomonas aeruginosa” (Eur J Med Chem, 2024)
# Activity calls are given as the source filed them. The rule behind the calls is not given here.
# Tests used:
# Pseudomonas aeruginosa [1] = assay: Inhibition of biofilm formation in Pseudomonas aeruginosa at sub-MIC by crystal violet staining based analysis relative to control; type: functional
# Pseudomonas aeruginosa [2] = assay: Antibacterial activity against Pseudomonas aeruginosa assessed as effect on bacterial growth at 16 microg/ml incubated for 24 hrs by growth curve analysis; type: functional, organism-based; conditions: dose 16.0 µg/ml
# Pseudomonas aeruginosa [3] = assay: Antivirulence activity in Pseudomonas aeruginosa assessed as inhibition of rhamnolipids production at sub-MIC by spectrophotometric method relative to control; type: functional
# Pseudomonas aeruginosa [4] = assay: Inhibition of biofilm formation in Pseudomonas aeruginosa assessed as absorbance by measuring OD at 570 nm at sub-MIC by crystal violet staining based analysis (reference value: 0.635 +/- 0.014); type: functional
# Pseudomonas aeruginosa [5] = assay: Antibacterial activity against Pseudomonas aeruginosa assessed as 1/4 MIC by CLSI protocol based broth microdilution method; type: functional
# Pseudomonas aeruginosa [6] = assay: Antivirulence activity in Pseudomonas aeruginosa assessed as inhibition of pyocyanin production by measuring OD at […] at sub-MIC by chloroform-HCl extraction method relative to control; type: functional
# Pseudomonas aeruginosa [7] = assay: Antivirulence activity in Pseudomonas aeruginosa assessed as inhibition of pyocyanin production at sub-MIC by chloroform-HCl extraction method relative to control; type: functional
# Pseudomonas aeruginosa [8] = assay: Antibacterial activity against Pseudomonas aeruginosa by CLSI protocol based broth microdilution method; type: functional; conditions: for MIC: Pseudomonas aeruginosa
# Pseudomonas aeruginosa [9] = assay: Antibiofilm activity against Pseudomonas aeruginosa assessed as inhibition of biofilm biomass at 300 microg/ml measured after 48 hrs relative to control; type: functional
# [10] = Inhibition of quorum sensing system in Pseudomonas aeruginosa transfected with lasB-gfp reporter gene incubated for 20 hrs by fluorescence based multilabel plate reader analysis
# Pseudomonas aeruginosa [11] = assay: Inhibition of biofilm formation in Pseudomonas aeruginosa at MIC incubated for 48 hrs by crystal violet staining based analysis relative to control; type: functional
# [12] = Inhibition of quorum sensing system in Pseudomonas aeruginosa MH602 transfected with lasB promoter expressing gfp-ASV at 250 uM incubated for 20 hrs by microplate reader analysis relative to control
# [13] = Inhibition of quorum sensing system in Pseudomonas aeruginosa MH602 transfected with lasB promoter expressing gfp-ASV at 62.5 uM incubated for 20 hrs by microplate reader analysis relative to control
# [14] = Inhibition of quorum sensing system in Pseudomonas aeruginosa MH602 transfected with lasB promoter expressing gfp-ASV at 125 uM incubated for 20 hrs by microplate reader analysis relative to control
# Pseudomonas aeruginosa [15] = assay: Antibacterial activity against Pseudomonas aeruginosa assessed as bacterial mortality in presence of ciprofloxacin relative to control; type: functional
# Pseudomonas aeruginosa [16] = assay: Inhibition of biofilm formation in Pseudomonas aeruginosa PAO1 at 64 microg/ml relative to control; type: functional
# Pseudomonas aeruginosa [17] = assay: Antibacterial activity against Pseudomonas aeruginosa assessed as bacterial mortality in presence of clarithromycin relative to control; type: functional
# [18] = Inhibition of quorum sensing system in Pseudomonas aeruginosa PAO1 assessed as reduction in pyocyanin production at 256 microg/ml relative to control; conditions: dose 256.0 µg/ml
# Pseudomonas aeruginosa [19] = assay: Antimicrobial activity against Pseudomonas aeruginosa ATCC 27853 assessed as growth inhibition zone by agar diffusion method; type: functional
# Bacillus subtilis = assay: Antimicrobial activity against Bacillus subtilis ATCC 6633 assessed as growth inhibition zone by agar diffusion method; type: functional
# Escherichia coli = assay: Antimicrobial activity against Escherichia coli ATCC 25922 assessed as growth inhibition zone by agar diffusion method; type: functional
# [20] = biological target: T1, Transcriptional activator protein LasR (Pseudomonas aeruginosa (strain ATCC 15692 / PAO1 / 1C / PRS 101 / LMG12228), UniProt P25084); assay: Inhibition of Pseudomonas aeruginosa LasR in Escherichia coli DH5 transfected with lacZ reporter and JN105 production plasmid incubated for 4 hrs by beta-galactosidase reporter based miller test
# T1 sequence (P25084 whole entry): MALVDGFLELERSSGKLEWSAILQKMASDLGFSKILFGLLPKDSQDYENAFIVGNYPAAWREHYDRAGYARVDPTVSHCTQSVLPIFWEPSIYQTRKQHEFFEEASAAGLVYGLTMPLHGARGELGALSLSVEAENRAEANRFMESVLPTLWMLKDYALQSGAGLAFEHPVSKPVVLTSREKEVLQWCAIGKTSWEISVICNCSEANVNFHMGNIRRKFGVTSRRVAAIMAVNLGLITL
# Pseudomonas aeruginosa [21] = assay: Antibacterial activity against Pseudomonas aeruginosa assessed as effect on bacterial growth at 9.375 microg/ml incubated for 24 hrs by growth curve analysis; type: functional, organism-based; conditions: dose 9.375 µg/ml
# Klebsiella pneumoniae = assay: Antimicrobial activity against Klebsiella pneumoniae ATCC 700603 assessed as growth inhibition zone by agar diffusion method; type: functional
# Candida albicans = assay: Antimicrobial activity against Candida albicans ATCC 60193 assessed as growth inhibition zone by agar diffusion method; type: functional
# Staphylococcus aureus = assay: Antimicrobial activity against Staphylococcus aureus ATCC 43300 assessed as growth inhibition zone by agar diffusion method; type: functional
# Pseudomonas aeruginosa [22] = assay: Antibacterial activity against Pseudomonas aeruginosa assessed as effect on bacterial growth at 18.75 microg/ml incubated for 24 hrs by growth curve analysis; type: functional, organism-based; conditions: dose 18.75 µg/ml
smiles,measurement,setting,value
CC[C@H]1OC(=O)[C@H](C)[C@@H](O[C@H]2C[C@@](C)(OC)[C@@H](O)[C@H](C)O2)[C@H](C)[C@@H](O[C@@H]2O[C@H](C)C[C@H](N(C)C)[C@H]2O)[C@](C)(O)C[C@@H](C)CN(C)[C@H](C)[C@@H](O)[C@]1(C)O [AZITHROMYCIN],inhibition (INH),Pseudomonas aeruginosa [1],21.7%
same,Activity,Pseudomonas aeruginosa [2],inactive
same,inhibition (INH),Pseudomonas aeruginosa [3],47.4%
same,OD,Pseudomonas aeruginosa [4],0.307
same,MIC,Pseudomonas aeruginosa [5],20.1 µM
same,OD,Pseudomonas aeruginosa [6],0.216
same,inhibition (INH),Pseudomonas aeruginosa [7],51.5%
same,SubMIC,Pseudomonas aeruginosa [8],16 µg/mL
same,MIC,Pseudomonas aeruginosa [8],85.4 µM
COc1ccc(C(=O)CSc2nc3ccccc3s2)c(OC)c1,inhibition at 300 µg/mL,Pseudomonas aeruginosa [9],70%
same,IC50,[10],45.5 µg/mL
COC(=O)c1ccc(/N=N/c2c(N)nn3c(N)c(C#N)c(-c4ccc(N(C)C)cc4)nc23)cc1,inhibition (INH),Pseudomonas aeruginosa [11],69%
O=C(Cn1cc(-c2ccc([N+](=O)[O-])cc2)nn1)Nc1nc2ccccc2[nH]1,inhibition,[12],68.2%
same,inhibition,[13],63.7%
same,inhibition,[14],67.1%
COc1ccc(OCCCCCCCC(=O)NNC(=O)Cn2c(=O)oc3ncccc32)cc1,mortality,Pseudomonas aeruginosa [15],48.27%
same,inhibition at 64 µg/mL,Pseudomonas aeruginosa [16],40%
same,mortality,Pseudomonas aeruginosa [17],49.79%
same,inhibition,[18],46.9%
N#C/C(=C\c1ccc(N2CCCC2)cc1)c1nc2ccccc2s1,inhibition zone (IZ),Pseudomonas aeruginosa [19],25 mm
same,inhibition (INH),Pseudomonas aeruginosa [1],63.9%
same,inhibition (INH),Pseudomonas aeruginosa [3],51%
same,OD,Pseudomonas aeruginosa [4],0.229
same,inhibition zone (IZ),Bacillus subtilis,22 mm
same,inhibition zone (IZ),Escherichia coli,24 mm
same,IC50,[20],1550 nM
same,Activity,Pseudomonas aeruginosa [21],inactive
same,inhibition zone (IZ),Klebsiella pneumoniae,26 mm
same,inhibition zone (IZ),Candida albicans,28 mm
same,OD,Pseudomonas aeruginosa [6],0.156
same,inhibition (INH),Pseudomonas aeruginosa [7],64.9%
same,SubMIC,Pseudomonas aeruginosa [8],9.375 µg/mL
same,MIC,Pseudomonas aeruginosa [8],18.8 µg/mL
same,inhibition zone (IZ),Staphylococcus aureus,27 mm
Brc1ccc(-c2ccnc3c(-c4nc5ccccc5s4)cnn23)cc1,inhibition zone (IZ),Pseudomonas aeruginosa [19],19 mm
same,inhibition (INH),Pseudomonas aeruginosa [1],20%
same,inhibition (INH),Pseudomonas aeruginosa [3],9.5%
same,OD,Pseudomonas aeruginosa [4],0.508
same,inhibition zone (IZ),Bacillus subtilis,16 mm
same,inhibition zone (IZ),Escherichia coli,18 mm
same,inhibition zone (IZ),Klebsiella pneumoniae,17 mm
same,Activity,Pseudomonas aeruginosa [22],inactive
same,inhibition zone (IZ),Candida albicans,20 mm
same,OD,Pseudomonas aeruginosa [6],0.376
same,inhibition (INH),Pseudomonas aeruginosa [7],15.5%
same,SubMIC,Pseudomonas aeruginosa [8],18.75 µg/mL
same,MIC,Pseudomonas aeruginosa [8],37.5 µg/mL
same,inhibition zone (IZ),Staphylococcus aureus,19 mm
